The text below walks through data of patent US20260184710A1, “CASITAS B-LINEAGE LYMPHOMA PROTOONCOGENE B (CBL-B) DEGRADING COMPOUNDS AND ASSOCIATED METHODS OF USE” (Arvinas Operations, Inc., priority 2022, published 2026).

Assay [1] has as its target T1, Cbl-b (Homo sapiens, UniProt Q13191).
T1 construct: Cbl-b-HiBit KI Jurkat Cells were purchased from Promega; host or cells: Cbl-b-HiBiT knock-in Jurkat cells
In words: Cbl-b Degradation Method B (Nano-Glo HiBiT lytic detection). The assay is classed as cell-based. Particulars: Cbl-b-HiBit KI Jurkat Cells, incubated at least 6-24 hours; for DC50: half maximal degradation, read-out: Cbl-b Degredation Method B IC50; for Dmax / Cbl-b Degredation Method B Dmax (%): maximum degradation observed; for Dmax: read-out: Cbl-b Degredation Method B Dmax (%). The essentials:
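Cbl-b-HiBiT knock-in Jurkat cells (20,000/well) were treated after ~24 h plating with an 11-point 1:3 series for 6-24 h at 37° C. Remaining Cbl-b measured by Nano-Glo HiBiT lytic luminescence. DC50 and Dmax expressed as % of control.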

In assay [2] the target is T1, Cbl-b. The experiment in a line: Cbl-b Degradation Method A (FACS, anti-Cbl-b antibody staining). Type of assay: cell-based. The conditions noted are these: Cbl-b-HiBit KI Jurkat Cells, incubated at least 20 hours; for DC50: half maximal degradation, read-out: Cbl-b Degredation Method A IC50; for Dmax: Jurkat, maximum degradation observed, read-out: Cbl-b Degredation Method A Dmax (%). As for the experimental part: Cbl-b Degradation Method A
Cbl-b-HiBit KI Jurkat Cells were purchased from Promega, and cell media consisted of RPMI 1640 with 10% FBS and 1% pen/strep. The cells were counted, measured for viability, and 100 μL of the cell solution was into 96 well flat bottom plates at a ratio of 290,000 cells per 100 μL. Compounds were dissolved in DMSO to make a 10 mM stock solution, which was diluted with cell media. 100 μL of the diluted compound mixture was added to the wells. The plate was incubated for at least 20 hours at 37° C. and 5% CO2. After incubation, the plate was shaken at 700-750 RMP for 15-30 minutes to ensure cells were removed from the wells. The wells were transferred to a 96-well v-bottom plate and spun for 2200 RPM for 3 minutes. The supernatant was removed, cells re-suspended in 100 μL of the fixative, and subsequently incubated at room temperature for 15 minutes. Afterwards, 150 μL of DPBS was added to each well, and the cells were centrifuged at 2500 RPM for 3 minutes. The supernatant was removed and the plate was chilled on ice for 2-3 minutes. While still on the ice, 100 μL of Perm III was added to each well, the wells mixed, and subsequently left on the ice for another 15 minutes. Afterwards, the plate was removed from the ice, 150 μL of DBPS was added to each well, and the cells centrifuged at 2700 RPM for 3 minutes. The supernatant was removed, and an additional 200 μL of was DPBS was added to each well, followed by centrifuging at 2700 RPM for 3 minutes, after which the supernatant was removed. The anti-Cbl-b antibody was diluted 1:200 in 1× Perm Wash buffer and 50 μL of the antibody mixture was added to each well and mixed. After addition, the plate was incubated for 35-45 minutes at room temperature. After incubation, 200 μL of DPBS was added to each wells, and the plate centrifuged at 2700 RPM for 3 minutes, followed by the removal of the supernatant. The washing step was repeated by adding 200 μL of DPBS to each wells followed by centrifuge at 2700 RPM for 3 minutes and removal of the supernatant. The a-Rabbit-AF488 antibody was diluted 1:1000 in Perm Wash buffer, 50 μL of the dilution added to each well, and mixed. After mixing, the plate was incubated for 30 minutes at room temperature in the dark. Subsequently, the supernatant was removed, and 200 μL of DBPS added to the cells, which were then centrifuged at 2900 RPM for 4 minutes. The supernatant was removed, and an additional 95 μL of DBPS was added to the wells and mixed. The cells were then transferred to a round bottom polypropylene plate and analyzed using FACS with the parameters below:
The concentration of an exemplary compound that leads to half maximal degradation (DC50) as well as the maximum degradation observed (Dmax, conventionally expressed as a percentage of control) is shown below in Table 2.
(The HiBiT peptide binds its large partner to form an active luciferase.)

T1 sequence (Q13191 whole entry): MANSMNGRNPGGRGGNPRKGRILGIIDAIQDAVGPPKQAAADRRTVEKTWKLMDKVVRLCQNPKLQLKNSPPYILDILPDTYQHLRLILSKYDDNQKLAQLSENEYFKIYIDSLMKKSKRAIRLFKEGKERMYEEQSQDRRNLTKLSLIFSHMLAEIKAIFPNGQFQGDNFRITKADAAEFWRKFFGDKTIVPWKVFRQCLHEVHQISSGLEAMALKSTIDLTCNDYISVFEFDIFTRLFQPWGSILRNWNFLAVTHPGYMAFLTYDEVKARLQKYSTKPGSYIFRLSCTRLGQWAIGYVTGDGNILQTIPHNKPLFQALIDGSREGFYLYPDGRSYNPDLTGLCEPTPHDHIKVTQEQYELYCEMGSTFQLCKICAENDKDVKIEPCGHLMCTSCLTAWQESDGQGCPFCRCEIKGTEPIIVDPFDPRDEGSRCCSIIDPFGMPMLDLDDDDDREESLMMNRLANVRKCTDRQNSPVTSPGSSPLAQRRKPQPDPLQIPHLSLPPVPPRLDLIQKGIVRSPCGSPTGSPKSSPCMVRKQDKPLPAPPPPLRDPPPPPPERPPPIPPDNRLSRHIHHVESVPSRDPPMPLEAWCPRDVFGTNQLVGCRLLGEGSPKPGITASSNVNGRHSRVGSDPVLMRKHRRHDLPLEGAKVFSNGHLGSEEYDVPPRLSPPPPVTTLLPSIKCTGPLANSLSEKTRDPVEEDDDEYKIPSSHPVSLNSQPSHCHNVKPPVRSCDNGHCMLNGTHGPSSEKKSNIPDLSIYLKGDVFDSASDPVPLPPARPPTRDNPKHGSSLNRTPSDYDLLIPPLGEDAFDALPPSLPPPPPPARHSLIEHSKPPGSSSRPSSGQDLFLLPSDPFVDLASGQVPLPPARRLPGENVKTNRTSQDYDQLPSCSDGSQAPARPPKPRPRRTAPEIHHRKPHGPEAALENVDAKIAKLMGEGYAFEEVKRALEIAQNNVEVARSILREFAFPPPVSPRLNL

Usually Dmax stands for the greatest extent of degradation seen. In the case of `CC1c2nc(N3CCC(O[C@H]4CC[C@H](CN5CCC6(CCN(c7cc8c(c(C(F)(F)F)c7)CN(c7cccc([C@]9(Cc%10nncn%10C)C[C@@H](C#N)C9)c7)C8=O)C6)C5)CC4)CC3)ccc2C(=O)N1C1CCC(=O)NC1=O` (stereo partly drawn) [Example 179, (1r,3r)-3-[(4-methyl-4H-1,2,4-triazol-3-yl)methyl]-3-{3-[1-oxo-6-(7-{[(1r,4r)-4-({1-[6-(2,6-dioxopiperidin-3-yl)-7-methyl-5-oxo-5H,6H,7H-pyrrolo[3,4-b]pyridin-2-yl]piperidin-4-yl}oxy)cyclohexyl]methyl}-2,7-diazaspiro[4.4]nonan-2-yl)-4-(trifluoromethyl)-2,3-dihydro-1H-isoindol-2-yl]phenyl}cyclobutane-1-carbonitrile], in assay [1], the DC50 was less than 5 nM and the maximal degradation (Dmax) was 35 to 70%. Moreover, in assay [2], the DC50 was in the range of 5 to 50 nM and the Dmax was 35 to 70%.

Turning to `Cn1cnnc1CC1(c2cccc(N3Cc4c(cc(CN5CCC(CN6CCC(Oc7ccc8c(c7)C(=O)N(C7CCC(=O)NC7=O)C8=O)CC6)CC5)cc4C(F)(F)F)C3=O)c2)COC1` (stereo not drawn) [Example 30, 2-(2,6-dioxopiperidin-3-yl)-5-({1-[(1-{[2-(3-{3-[(4-methyl-4H-1,2,4-triazol-3-yl)methyl]oxetan-3-yl}phenyl)-3-oxo-7-(trifluoromethyl)-2,3-dihydro-1H-isoindol-5-yl]methyl}piperidin-4-yl)methyl]piperidin-4-yl}oxy)-2,3-dihydro-1H-isoindole-1,3-dione], the DC50 in assay [1] and in assay [2] was greater than 500 nM in each case.

As for `CC1c2nc(N3CCC(O[C@H]4CC[C@H](CN5CCN(Cc6cc7c(c(C(F)(F)F)c6)CN(c6cccc(C8(Cc9nncn9C)COC8)c6)C7=O)CC5(C)C)CC4)CC3)ccc2C(=O)N1C1CCC(=O)NC1=O` (mixture of isomers) [Example 236, rac-3-[7-methyl-5-oxo-2-(4-{[(1r,4r)-4-[(2,2-dimethyl-4-{[2-(3-{3-[(4-methyl-4H-1,2,4-triazol-3-yl)methyl]oxetan-3-yl}phenyl)-3-oxo-7-(trifluoromethyl)-2,3-dihydro-1H-isoindol-5-yl]methyl}piperazin-1-yl)methyl]cyclohexyl]oxy}piperidin-1-yl)-5H,6H,7H-pyrrolo[3,4-b]pyridin-6-yl]piperidine-2,6-dione], in assay [1], the DC50 is less than 5 nM and the greatest degradation seen (Dmax) is greater than 70%. Moreover, in assay [2], the DC50 was less than 5 nM and the Dmax was greater than 70%.

Regarding `Cn1cnnc1CC1(c2cccc(N3Cc4c(cc(CN5CCC[C@H](CN6CCC(CN7CCN(c8ccc9c(c8)C(=O)N(C8CCC(=O)NC8=O)C9=O)CC7)CC6)C5)cc4C(F)(F)F)C3=O)c2)COC1` (stereo partly drawn) [Example 101, 2-(2,6-dioxopiperidin-3-yl)-5-{4-[(1-{[(3R)-1-{[2-(3-{3-[(4-methyl-4H-1,2,4-triazol-3-yl)methyl]oxetan-3-yl}phenyl)-3-oxo-7-(trifluoromethyl)-2,3-dihydro-1H-isoindol-5-yl]methyl}piperidin-3-yl]methyl}piperidin-4-yl)methyl]piperazin-1-yl}-2,3-dihydro-1H-isoindole-1,3-dione], the DC50 in assay [1] and in assay [2] was greater than 500 nM each time.

As for `CC1CN(C[C@H]2CC[C@@H](OC3CCN(c4ccc5c(c4F)CN(C4CCC(=O)NC4=O)C5=O)CC3)CC2)CCN1C[C@H]1CCCN(Cc2cc3c(c(C(F)(F)F)c2)CN(c2cccc(C4(Cc5nncn5C)COC4)c2)C3=O)C1` (stereo partly drawn) [Example 166, 3-[4-fluoro-1-oxo-5-(4-{[(1r,4r)-4-[(3-methyl-4-{[(3S)-1-{[2-(3-{3-[(4-methyl-4H-1,2,4-triazol-3-yl)methyl]oxetan-3-yl}phenyl)-3-oxo-7-(trifluoromethyl)-2,3-dihydro-1H-isoindol-5-yl]methyl}piperidin-3-yl]methyl}piperazin-1-yl)methyl]cyclohexyl]oxy}piperidin-1-yl)-2,3-dihydro-1H-isoindol-2-yl]piperidine-2,6-dione], the DC50 in assay [1] and in assay [2] was less than 5 nM in each case. Besides, the Dmax in assay [1] and in assay [2] was greater than 70% each time.

Turning to `COC1CC(Cc2nncn2C)(c2cccc(N3Cc4c(cc(CN5CCN(C[C@H]6CC[C@H](OC7CCN(c8ccc9c(n8)C(C)N(C8CCC(=O)NC8=O)C9=O)CC7)CC6)CC5(C)C)cc4C(F)(F)F)C3=O)c2)C1` (stereo partly drawn) [Example 294, 3-[7-methyl-5-oxo-2-(4-{[(1r,4r)-4-[(4-{[2-(3-{3-methoxy-1-[(4-methyl-4H-1,2,4-triazol-3-yl)methyl]cyclobutyl}phenyl)-3-oxo-7-(trifluoromethyl)-2,3-dihydro-1H-isoindol-5-yl]methyl}-3,3-dimethylpiperazin-1-yl)methyl]cyclohexyl]oxy}piperidin-1-yl)-5H,6H,7H-pyrrolo[3,4-b]pyridin-6-yl]piperidine-2,6-dione], in assay [1], the DC50 is less than 5 nM and the “Cbl-b Degredation Method B Dmax (%)” value was “C (C ≤ 35)”. In assay [2], the DC50 was in the range of 50 to 500 nM and the Dmax is greater than 70%.

Take `CC(C)n1c(=O)n(C2CCC(=O)NC2=O)c2ccc(N3CCC(O[C@H]4CC[C@H](CN5CCN(Cc6cc7c(c(C(F)(F)F)c6)CN(c6cccc(C8(Cc9nncn9C)CC(C#N)C8)c6)C7=O)C(C)(C)C5)CC4)CC3)c(F)c21` (stereo partly drawn) [Example 318, (1r**,3r**)-3-(3-{6-[(2,2-dimethyl-4-{[(1r*,4r*)-4-({1-[1-(2,6-dioxopiperidin-3-yl)-4-fluoro-2-oxo-3-(propan-2-yl)-2,3-dihydro-1H-1,3-benzodiazol-5-yl]piperidin-4-yl}oxy)cyclohexyl]methyl}piperazin-1-yl)methyl]-1-oxo-4-(trifluoromethyl)-2,3-dihydro-1H-isoindol-2-yl}phenyl)-3-[(4-methyl-4H-1,2,4-triazol-3-yl)methyl]cyclobutane-1-carbonitrile]: in assay [1], the DC50 is less than 5 nM and the “Cbl-b Degredation Method B Dmax (%)” value was “C (C ≤ 35)”. Moreover, in assay [2], the DC50 lay within 50 to 500 nM and the Dmax lay in the range of 35 to 70%.

`Cc1cc(N2CCC(CN3CCC4(CCN(c5cc6c(c(C(F)(F)F)c5)CN(c5cccc([C@]7(Cc8nncn8C)C[C@@H](C#N)C7)c5)C6=O)C4)C3)CC2)c(F)c2c1C(=O)N(C1CCC(=O)NC1=O)C2` (stereo partly drawn) [Example 177, (1r,3r)-3-(3-{6-[7-({1-[2-(2,6-dioxopiperidin-3-yl)-4-fluoro-7-methyl-1-oxo-2,3-dihydro-1H-isoindol-5-yl]piperidin-4-yl}methyl)-2,7-diazaspiro[4.4]nonan-2-yl]-1-oxo-4-(trifluoromethyl)-2,3-dihydro-1H-isoindol-2-yl}phenyl)-3-[(4-methyl-4H-1,2,4-triazol-3-yl)methyl]cyclobutane-1-carbonitrile]: the figures for the DC50 in assay [1] and in assay [2] were less than 5 nM and 5 to 50 nM, respectively. The Dmax in assay [1] and in assay [2] was 35 to 70% throughout.

Take `Cn1cnnc1CC1(c2cccc(N3Cc4c(cc(CN5CCC(COCCOCCOc6ccc7c(c6)C(=O)N(C6CCC(=O)NC6=O)C7=O)CC5)cc4C(F)(F)F)C3=O)c2)COC1` (stereo not drawn) [Example 89, 2-(2,6-dioxopiperidin-3-yl)-5-(2-{2-[(1-{[2-(3-{3-[(4-methyl-4H-1,2,4-triazol-3-yl)methyl]oxetan-3-yl}phenyl)-3-oxo-7-(trifluoromethyl)-2,3-dihydro-1H-isoindol-5-yl]methyl}piperidin-4-yl)methoxy]ethoxy}ethoxy)-2,3-dihydro-1H-isoindole-1,3-dione]: the DC50 in assay [1] and in assay [2] was greater than 500 nM each time.
